The record followed here is ChEMBL document CHEMBL3351437, “Ralfuranone Is Produced by an Alternative Aryl-Substituted γ-Lactone Biosynthetic Route in Ralstonia solanacearum” (2014).

Assay [1] has as its system Staphylococcus aureus. In words: Antimicrobial activity against methicillin-resistant Staphylococcus aureus at 342 uM after 18 hrs by microdilution method. In kind it is functional, organism-based. (In general: Dilution methods test growth across graded concentrations, often in twofold steps.)
Assay [2] concerns Bacillus subtilis. In words: Antimicrobial activity against Bacillus subtilis at 342 uM after 18 hrs by microdilution method. In kind it is functional, organism-based.
For assay [3], the system named is Mycolicibacterium vaccae. The assay can be described thus: Antimicrobial activity against Mycobacterium vaccae at 342 uM after 18 hrs by microdilution method. In kind it is functional, organism-based.
For assay [4], the system named is Staphylococcus aureus. In words: Antimicrobial activity against Staphylococcus aureus at 342 uM after 18 hrs by microdilution method. It counts as functional, organism-based.
In assay [5] the test system is Enterococcus faecalis. The assay can be described thus: Antimicrobial activity against vancomycin-resistant Enterococcus faecalis at 342 uM after 18 hrs by microdilution method. It counts as functional, organism-based.
The subject of assay [6] is Penicillium chrysogenum. In words: Antimicrobial activity against Penicillium notatum assessed as inhibition of conidia germination at 342 uM after 18 hrs by microdilution method. It counts as functional, organism-based.
The subject of assay [7] is Bacillus subtilis. In words: Antimicrobial activity against Bacillus subtilis after 18 hrs by microdilution method. In kind it is functional.
Assay [8] relates to Mycolicibacterium vaccae. In words: Antimicrobial activity against Mycobacterium vaccae after 18 hrs by microdilution method. It counts as functional.
For assay [9], the system named is Enterococcus faecalis. The assay can be described thus: Antimicrobial activity against vancomycin-resistant Enterococcus faecalis after 18 hrs by microdilution method. In kind it is functional.
For assay [10], the system named is Penicillium chrysogenum. In words: Antimicrobial activity against Penicillium notatum assessed as inhibition of conidia germination after 18 hrs by microdilution method. In kind it is functional.
Assay [11] deals with Staphylococcus aureus. The assay can be described thus: Antimicrobial activity against Staphylococcus aureus after 18 hrs by microdilution method. It counts as functional.
The test system of assay [12] is Staphylococcus aureus. The assay can be described thus: Antimicrobial activity against methicillin-resistant Staphylococcus aureus after 18 hrs by microdilution method. In kind it is functional.

Values after ≈ are worked out from the molar mass of the structure shown. Active and inactive are the calls of the source. The calls are words filed in the database; no cut-off is given here.

In the case of `O=C1OCC(c2ccccc2)=C1C(O)c1ccccc1` (stereo unspecified), the result in the assay with Staphylococcus aureus [1], with Bacillus subtilis [2], in the assay with Mycolicibacterium vaccae [3], in the assay with Staphylococcus aureus [4], in the assay with Enterococcus faecalis [5] and in the assay with Penicillium chrysogenum [6] was inactive.

As a reminder, the MIC is the lowest concentration found to suppress growth. On to `O=C(O)c1cn(C2CC2)c2cc(N3CCNCC3)c(F)cc2c1=O` [CIPROFLOXACIN], for which the MIC is less than 0.05 µg/mL against Bacillus subtilis [7], 0.2 µg/mL with Mycolicibacterium vaccae [8] and 1.56 µg/mL in the assay with Enterococcus faecalis [9].

For the compound `C[C@@H]1[C@H](O)[C@@H](C)/C=C/C=C/C=C/C=C/C=C/C=C/C=C/[C@H](O[C@@H]2O[C@H](C)[C@@H](O)[C@H](N)[C@@H]2O)C[C@@H]2O[C@](O)(C[C@@H](O)C[C@@H](O)[C@H](O)CC[C@@H](O)C[C@@H](O)CC(=O)O[C@H]1C)C[C@H](O)[C@H]2C(=O)O` [AMPHOTERICIN B], the MIC with Penicillium chrysogenum [10] was determined as 0.4 µg/mL.

With `O=C(O)C1=C(c2ccccc2)/C(=C/c2ccccc2)C(=O)O1`, the MIC with Bacillus subtilis [7] stood at 5.3 µM; in the assay with Staphylococcus aureus [11], 5.3 µM (≈ 1.55 µg/mL); with Penicillium chrysogenum [10], 42.4 µM; in the assay with Staphylococcus aureus [12], 5.3 µM (≈ 1.55 µg/mL); in the assay on Mycolicibacterium vaccae [8] it was 10.6 µM; against Enterococcus faecalis [9], 21.2 µM.
